Laboratory results from patent US10098841B2, “Method of inducing a phase transition of a bilayer membrane vesicle” (Japan Science and Technology Agency, priority 2005, dated 2018).
In brackets after ≈: the same amount, converted by molar mass. Several values for one entry are separate records, joined by “and”; a condition that tells them apart may be missing. Equal entries are not always repeated.

Legend:
[1] = Change in particle size accompanying SUV fusion (DLS); details: for Z average (average diameter): CDMT 50 equivalents; for number of SUVs fused, from change in particle size: about 3 hours
Protocol: SUV dispersions with the compositions shown in Table 6 were prepared in accordance with the SUV preparation method described in Example 6.
The prepared SUV dispersions were filtered through a 0.45-μm pore size filter and each was divided into two 2 mL samples, one of which was supplied with 21.7 μL (50 equivalents) of CDMT (300 mM in methanol) and the other supplied with 21.7 μL of methanol as a control experiment, and allowed to stand at room temperature. The particle size after three hours was measured by DLS.

[2] = SUV membrane fusion by fluorescence dilution method; details: CDMT 25 or 50 equivalents; SUV with and without fluorescent agent
Protocol: An SUV dispersion with a fluorescent agent and an SUV dispersion without a fluorescent agent, of the compositions shown in Table 5 were prepared according to the SUV preparation method described in Example 6.
First, 0.2 mL of the prepared SUV dispersion with a fluorescent agent and 1.8 mL of the SUV dispersion without a fluorescent agent were mixed at room temperature. Three samples were prepared for each SUV. To two of these samples 10.8 μL (25 equivalents) or 21.7 μL (50 equivalents) of CDMT (300 mM in methanol) was added respectively, and allowed to stand at room temperature. As a control experiment, 21.7 μL of methanol was added to the remaining sample, and also allowed to stand, and then the fluorescence was measured at a given time interval.
Unlike the mixing method of Example 7, in the case of the fluorescence dilution method of Example 8, the F value becomes smaller as fusion proceeds. […] It should be noted that in the graph of FIG. 5, it appears as if at initial state there is a difference between the control sample and the samples to which CDMT has been added.

[3] = Observation of SUV by transmission electron microscope; details: SUV with sodium laurate and C16-tertiary amine
Protocol: A SUV dispersion of the composition shown in Table 8 was prepared in accordance with the SUV preparation method described in Example 6.
To 200 μL of the prepared SUV dispersion, 4.3 μL of CDMT (300 mM in methanol) was added, and allowed to stand at room temperature. As a control experiment, 4.3 μL of methanol was added instead of CDMT, and allowed to stand at room temperature. Several drops of the SUV dispersion after standing were placed on a carrier, frozen with liquid nitrogen, and prepared specimens for electron microscopy (replicas) by a freeze fracturing method ordinarily performed by those skilled in the art (JEOL JFD-9010 was used). The specimens obtained were observed by TEM (JEOL JEM-1010) (acceleration voltage 100 kv). The arrows in the micrographs indicate the SUV.

[4] = Membrane fusion experiment using MLV, change in fluorescence (F value, NBD-PE to Rh-PE energy transfer); details: for membrane fusion of MLV (in words): from F value over time
From the text: Examples of means for evaluating and observing a phase transition such as fusion of the membranes include observation by electron microscope, quantification of the produced pseudo-ceramide (for example, by mass spectrometry), and measurement of the change in fluorescence. In the case of measuring changes in fluorescence, a compound which causes a fluorescence energy transfer to another compound that present in the vicinity of the compound is introduced as a component of the bilayer membrane. Examples of such compounds include the combination of 1,2-dimyristyl-sn-glycero-3-phosphoethanolamine-N-(7-nitro-2-1,3-benzoxadiazol-4-yl) (NBD-PE) and 1,2-dimyristyl-sn-glycero-3-phosphoethanolamine-N-(lissamine rhodamine B sulfonyl) (Rh-PE). The former is the energy donor, and the latter is the energy acceptor. […] As for evaluating changes in the fluorescence, it is possible to use the fluorescence change F that is obtained by:
For example, when NBD-PE and Rh-PE are included in separate vesicles, the F value increases by fusion of the vesicles. To the contrary, when a vesicle including both NBD-PE and Rh-PE fuses with a vesicle including neither, the distance between the NBD-PE and Rh-PE increases so that the F value decreases.
First, 1 mL each of the MLV dispersions that contain a tertiary amine (C8 or C16) obtained in Example 1 were mixed at room temperature. A solution of 2-chloro-4,6-dimethoxy-1,3,5-triazin (CDMT) (150 mM or 300 mM) in methanol (21.7 μL) was added thereto, and allowed to stand at room temperature. Next, to the MLV dispersion obtained in Example 2, a solution of 4-(4,6-dimethoxy-1,3,5-triazin-2-yl)-4-methylmorpholium chloride (DMT-MM) (225 mM or 300 mM) in methanol (21.7 μL), which is a water-soluble dehydrating condensing agent, was added to prepare a mixture. As a control experiment, a mixture to which 21.7 μL of methanol was added instead of the CDMT solution was prepared.
The change in fluorescence over time of the prepared mixtures was measured with a fluorometer. The excitation wavelength was 470 nm. As mentioned above, the F value was used as the criterion for the change in fluorescence.

[5] = Leaking of aqueous phase within SUV accompanying fusion (calcein); details: with fusion, CDMT 50 equivalents
Protocol: Accordingly, in this example, by utilizing the property of the compound, a fusion test was performed for liposomes in which (in the inner aqueous phase) calcein has been contained at a high concentration in advance.
The SUV was prepared according to the method described in Example 6. However, the calcein (75 mM) was added to a phosphate buffer (5 mM NaH2PO4/Na2HPO4, 0.15 M NaCl, pH 8), and ultrasonic wave treatment was performed to produce SUVs. The SUVs were separated by gel filter (Sephadex G-50, using the same phosphate buffer solution in the mobile phase) to remove the calcein present in the outside aqueous phase, giving a SUV dispersion.
CDMT (50 equivalents) was added to the obtained SUV dispersion, and allowed to stand at room temperature and the fluorescence (520 nm) was measured (FS) after a given time, and immediately after Triton X-100 (10%, 200 μL) was added to destroy the SUV, and then the fluorescence was measured again (FT). […] The rate of leakage was calculated by the following equation.
[formula] • F0: Fluorescence intensity at 0 hours • FS: Fluorescence intensity at each hour • FT: Fluorescence intensity after adding Triton X-100

[6] = Fusion experiment between active SUV and inactive SUV (fluorescence dilution); details: CDMT 35 equivalents; runs 2 and 3, one SUV inactive
Protocol: In accordance with the fluorescence dilution method described in Example 8, 0.2 mL of the prepared SUV dispersion with a fluorescent agent and 1.8 mL of the SUV dispersion without a fluorescent agent were mixed at room temperature. […] Then, 15.2 μL (4.55 μmol: 35 equivalents of the total fatty acid salt of run 1) of CDMT (300 mM in methanol) was added thereto, allowed to stand at room temperature, and the change in the F values over time was measured with a fluorometer.

[7] = Change in particle size accompanying MLV fusion (DLS); details: MLV with C8-tertiary amine 0.2 equivalent, CDMT 50 equivalents
Protocol: The MLV dispersion prepared was separated into 2 mL portions, and 50 equivalents (21.7 μL) CDMT (300 mM in methanol) was added thereto. For the control, 21.7 μL of methanol was added. Two samples were prepared and the particle size after 12 hours was measured by dynamic light scattering (DLS).

[8] = Membrane fusion experiment using SUV (F value); details: SUV with C16-tertiary amine
Protocol: Sodium laurate (45.0 mM in methanol, 5.8 μL), the dihydric alcohol 1B (38.5 mM in chloroform, 6.8 μL), C16-tertiary amine (3.05 mM in chloroform, 17.0 μL), nonreduced egg yolk lecithin (13.0 mM in chloroform, 19.0 μL), and a fluorescent agent (for NBD-PE: 1.23 mM in chloroform, 10.6 μL; for Rh-PE: 4.19 mM in chloroform, 3.1 μL) were placed into a 20-mL eggplant-shaped flask, and the solvent was evaporated under reduced pressure using a rotary evaporator. The thin film formed on the inner well of the flask was further dried under reduced pressure using a vacuum pump (room temperature, 0.5 hours). Then, 4 mL of phosphate buffer (5 mM NaH2PO4/Na2HPO4, 0.15 M NaCl, pH 8.5) was added thereto, and ultrasonic waves were applied for 30 seconds using a bath-type ultrasonic wave generation device. Next, the mixture was stirred and shaken for 10 minutes with a vortex mixer at 100% strength. […]
Using the SUV dispersion containing NBD-PE and Rh-PE obtained in Example 6, the change in fluorescence over time was measured in the same way as in the membrane fusion experiment with MLV of Example 3. The F value was calculated from the intensity of the fluorescence peaks to evaluate SUV fusion.

[9] = Solubility in the phosphate buffer used in the examples; format: physicochemical; details: aqueous buffer, buffer 5 mM NaH2PO4, 0.15 M NaCl, pH 7.5, read-out: solubility against the buffer
Protocol: The solubility of the dihydric alcohol 1A against the buffer (5 mM NaH2PO4, 0.15 M NaCl, pH 7.5) used in the examples was about 10 mM.
The solubility of the dihydric alcohol 1B against the buffer (5 mM NaH2PO4, 0.15 M NaCl, pH 7.5) used in the examples was about 0.2 mM.

## COc1nc(Cl)nc(OC)n1 [CDMT, 2-chloro-4,6-dimethoxy-1,3,5-triazin]
[1]; SUV with lauric acid, 0 hr
  Z average (average diameter): 92.7 nm
[1]; SUV with lauric acid, 3 hr
  Z average (average diameter): 218.7 nm
[1]; SUV with oleic acid, 0 hr
  Z average (average diameter): 66.1 nm
[1]; SUV with oleic acid, 3 hr
  Z average (average diameter): 213.8 nm
[1]; laurate SUV
  number of SUVs fused, from change in particle size: 10 to 20
[1]; oleate SUV
  number of SUVs fused, from change in particle size: 30 to 40
[2]
  change in fluorescence, fluorescence dilution method (FIG. 5, in words): a decrease in the fluorescence was found
[3]
  particle size by TEM after CDMT addition: greater than 1 μm
[4]; CDMT 25 equivalents, C16 tertiary amine in MLV, 2 hr
  Change in fluorescence (F value): 1.64
[4]; CDMT 25 equivalents, C16 tertiary amine in MLV, 5 hr
  Change in fluorescence (F value): 8.10
[4]; CDMT 50 equivalents, C8 tertiary amine in MLV, 5 hr
  Change in fluorescence (F value): 2.22
[4]; CDMT 50 equivalents, C8 tertiary amine in MLV, 12 hr
  Change in fluorescence (F value): 5.40
[4]; CDMT 50 equivalents, C16 tertiary amine in MLV, 2 hr
  Change in fluorescence (F value): 4.41
[4]; CDMT 50 equivalents, C16 tertiary amine in MLV, 5 hr
  Change in fluorescence (F value): 10.4
[4]
  membrane fusion of MLV (in words): membrane fusion occurs
[5]; 1 hr
  Rate of leakage: 6.5%
[5]; 2 hr
  Rate of leakage: 7.1%
[5]; 3 hr
  Rate of leakage: 8% and 8.3%
[6]
  change in F value, active/inactive SUV combinations (FIG. 9, in words): the F value significantly changes
[7]; 0 hr
  Z average (average diameter): 235.2 nm and 232.4 nm
[7]; 12 hr
  Z average (average diameter): 280.3 nm and 278.2 nm
[8]
  SUV membrane fusion (F value, FIG. 4, in words): membrane fusion occurred

## COc1nc(OC)nc([N+]2(C)CCOCC2)n1.[Cl-] [DMT-MM, 4-(4,6-dimethoxy-1,3,5-triazin-2-yl)-4-methylmorpholium chloride]
[4]; DMT-MM 38 equivalents, MLV without tertiary amine, 36 hr
  Change in fluorescence (F value): 1.42
[4]; DMT-MM 50 equivalents, MLV without tertiary amine, 36 hr
  Change in fluorescence (F value): 1.64
[4]
  membrane fusion of MLV (in words): membrane fusion occurred extremely slowly

## CCCCCCCCNCC(O)CO (stereo not drawn) [dihydric alcohol 1A, 3-octylamino-1,2-propanediol]
[9]
  solubility: ~10 mM (≈ 2030 µg/mL)

## CCCCCCCCCCCCNCC(O)CO (stereo not drawn) [dihydric alcohol 1B, 3-dodecylamino-1,2-propanediol]
[9]
  solubility: ~0.2 mM (≈ 51.9 µg/mL)
